Legend:
A549 cells = experiment: pAKT S473 ELISA, A549; type: cell-based, human; conditions: 15 min; 5-10 μM 1938
Method: A549 cells were seeded at 50,000 cells per well in 96-well plates in DMEM (10% FBS + 1% P/S). The next day cells were washed once with PBS before addition of serum-free DMEM for 24 h. On the day of treatment, cells were incubated in fresh serum-free DMEM prior to treatment. Compounds solubilised to 10 mM in DMSO were diluted 1:3 in an 8-point concentration response curve in DMSO. Concentration response curves were diluted in serum-free DMEM by transfer into intermediate plates using a BRAVO liquid handler (Agilent). Intermediate plates were then used to treat cell plates using the BRAVO liquid handler. […] Cell plates were treated for 15 min at 37°C, 5% CO2 before being washed with ice-cold PBS and lysed in lysis buffer […] Systems #895561) and freezing at -80°C. Levels of pAKT^S473 were determined using the phospho-AKT (S473) pan-specific Duoset IC ELISA (R&D Systems #DY[…]) in 96-well white high-binding plates (Corning #3922) according to manufacturer's instructions. Endpoint luminescence was measured using a Sense (Hidex) platereader. […] Data were transformed and EC50 data were determined by variable slope (4 parameters) non-linear regression using Prism 7 (Graphpad).

human p110β/p85α (PI3Kβ) = target: T1, human p110β/p85α (PI3Kβ) (Homo sapiens, UniProt P42338); experiment: ADP-Glo in vitro lipid kinase assay, PI3Kβ; type: biochemical
T1 construct: Full-length human p110β/p85α and p110δ/p85α were cloned and expressed in a similar manner; Strep-tag followed by TEV protease site (N, cleaved yes); host or cells: Spodoptera frugiperda Sf9, baculovirus
T1 sequence (P42338 whole entry): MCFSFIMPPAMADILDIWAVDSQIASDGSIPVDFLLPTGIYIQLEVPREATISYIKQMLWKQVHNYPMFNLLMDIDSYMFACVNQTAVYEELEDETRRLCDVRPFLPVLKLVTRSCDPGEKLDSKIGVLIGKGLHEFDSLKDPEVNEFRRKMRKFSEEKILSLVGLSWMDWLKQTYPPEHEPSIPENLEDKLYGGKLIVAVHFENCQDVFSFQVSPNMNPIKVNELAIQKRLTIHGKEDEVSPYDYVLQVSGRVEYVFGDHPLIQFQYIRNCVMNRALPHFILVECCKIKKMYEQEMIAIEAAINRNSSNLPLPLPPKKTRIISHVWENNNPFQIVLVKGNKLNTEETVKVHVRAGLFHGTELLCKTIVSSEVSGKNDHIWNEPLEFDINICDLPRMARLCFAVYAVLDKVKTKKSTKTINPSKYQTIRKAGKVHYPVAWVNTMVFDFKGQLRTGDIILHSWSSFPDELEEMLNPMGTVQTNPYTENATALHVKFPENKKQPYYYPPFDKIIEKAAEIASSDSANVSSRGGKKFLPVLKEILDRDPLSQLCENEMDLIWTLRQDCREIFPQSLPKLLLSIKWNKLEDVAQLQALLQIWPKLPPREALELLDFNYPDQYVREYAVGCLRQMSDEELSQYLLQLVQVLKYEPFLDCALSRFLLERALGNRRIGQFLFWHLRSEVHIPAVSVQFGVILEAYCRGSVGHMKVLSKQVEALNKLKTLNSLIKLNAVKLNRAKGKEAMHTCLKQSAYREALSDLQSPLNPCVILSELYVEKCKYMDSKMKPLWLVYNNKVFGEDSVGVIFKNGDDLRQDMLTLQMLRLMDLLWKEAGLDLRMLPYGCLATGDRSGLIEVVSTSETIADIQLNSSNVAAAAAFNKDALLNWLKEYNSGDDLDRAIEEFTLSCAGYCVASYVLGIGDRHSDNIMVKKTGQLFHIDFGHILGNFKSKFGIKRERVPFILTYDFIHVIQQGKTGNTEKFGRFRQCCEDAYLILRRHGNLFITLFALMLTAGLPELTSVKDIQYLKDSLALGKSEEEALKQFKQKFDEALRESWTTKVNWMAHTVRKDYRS
T1 sequence (P27986 whole entry partner): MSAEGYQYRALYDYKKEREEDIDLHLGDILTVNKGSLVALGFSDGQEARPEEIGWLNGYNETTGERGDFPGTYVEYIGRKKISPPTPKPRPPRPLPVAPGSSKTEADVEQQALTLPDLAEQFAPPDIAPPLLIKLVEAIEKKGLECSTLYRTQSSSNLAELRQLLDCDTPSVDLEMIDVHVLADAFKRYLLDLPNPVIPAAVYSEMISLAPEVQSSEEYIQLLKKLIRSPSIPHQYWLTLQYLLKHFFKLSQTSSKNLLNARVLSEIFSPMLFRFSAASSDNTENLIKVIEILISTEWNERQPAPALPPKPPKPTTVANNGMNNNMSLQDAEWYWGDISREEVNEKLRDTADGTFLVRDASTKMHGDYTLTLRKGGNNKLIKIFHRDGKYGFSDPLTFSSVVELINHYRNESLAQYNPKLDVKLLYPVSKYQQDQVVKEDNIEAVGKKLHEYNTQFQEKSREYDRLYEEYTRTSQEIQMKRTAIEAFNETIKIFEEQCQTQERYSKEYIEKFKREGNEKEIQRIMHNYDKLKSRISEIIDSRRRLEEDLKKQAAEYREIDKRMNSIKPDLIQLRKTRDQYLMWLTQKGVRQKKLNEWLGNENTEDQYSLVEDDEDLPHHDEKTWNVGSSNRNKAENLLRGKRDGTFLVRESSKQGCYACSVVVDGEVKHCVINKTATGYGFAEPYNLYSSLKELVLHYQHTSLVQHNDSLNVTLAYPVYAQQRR
Method: Full-length human p110β/p85α and p110δ/p85α were cloned and expressed in a similar manner. Briefly, 5 litres of Spodoptera frugiperda (Sf9) cell culture at a density of 1.0 x 10^6 cells/ml were co-infected with both a p85α-encoding virus and a virus encoding p110β/δ with an N-terminal Strep-tag followed by a tobacco etch virus (TEV) protease site (plasmid OP832 for p110β, plasmid OP833 for p110δ and plasmid of OP809 for p85α). After a 48 h infection at 27°C, cells were harvested and washed with PBS. Cell pellets were then resuspended in Lysis Buffer (20 mM Tris pH 8.0, 150 mM NaCl, 5% glycerol, 2 mM β-mercaptoethanol, 1 EDTA-free protease inhibitor tablet (Roche) per 50 ml of buffer) and sonicated ar 4°C for 7 min in 15 sec intervals followed by a 15 sec wait. […]
For re-screening of HTS hits and routine compound profiling, the reaction mixture contained 2 μl PI3K enzyme, 2 μl compound and/or pY and 2 μl of liposome substrate mixed with ATP. […] Luminescence was read using a Sense (Hidex) plate reader. […]
For characterisation of the effects of 1938 on in vitro PI3K enzymology, all reactions were performed at room temperature with 384 white-polystyrene plates (Corning #3574). […] Data was expressed as velocity (nmol of ADP generated/nmol of enzyme/sec). […] Luminescence was read using a PHERAstar® plate reader with software version 5.41, and analyses were performed using GraphPad Prism 8/9.

For CCN1CCN(c2ccc(Nc3cc(Nc4cccc5c4N(C(C)=O)CC5)ccn3)cc2)CC1 [Compound 1938], the “pAKT^S473 generation” value (A549 cells) was ~ 200 % of Emax of 1 μM insulin and the “activation of PI3Kβ” value (human p110β/p85α (PI3Kβ)) was “but not PI3Kβ or PI3Kδ”.
